Literature values, collected in patent publication EP1862927B1, “Descriptors of three-dimensional objects, uses thereof and a method to generate the same” (SILICOS NV, priority 2006, dated 2007).

Molecular target: T1, human soluble epoxide hydrolase (Homo sapiens, UniProt P34913)
T1 sequence (P34913 1-555): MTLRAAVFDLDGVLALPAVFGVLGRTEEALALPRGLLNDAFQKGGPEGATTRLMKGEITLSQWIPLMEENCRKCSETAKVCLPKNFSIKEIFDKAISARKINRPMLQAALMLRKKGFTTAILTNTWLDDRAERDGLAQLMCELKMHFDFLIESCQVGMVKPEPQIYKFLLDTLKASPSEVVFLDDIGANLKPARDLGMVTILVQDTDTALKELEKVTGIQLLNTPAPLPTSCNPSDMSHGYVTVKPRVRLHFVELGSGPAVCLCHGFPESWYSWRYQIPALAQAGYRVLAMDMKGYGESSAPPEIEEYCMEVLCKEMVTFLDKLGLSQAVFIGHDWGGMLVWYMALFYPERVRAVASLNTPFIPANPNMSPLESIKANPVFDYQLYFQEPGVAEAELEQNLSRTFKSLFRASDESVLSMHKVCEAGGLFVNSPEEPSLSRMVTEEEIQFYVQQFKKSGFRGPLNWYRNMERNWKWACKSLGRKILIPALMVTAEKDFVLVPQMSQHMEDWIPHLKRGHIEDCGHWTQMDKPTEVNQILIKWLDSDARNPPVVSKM
Conditions: inhibition constants of urea-like molecular species taken from McElroy et al., J. Med. Chem. 46, 1066-1080

Which IC50 does the source give for `O=C(NCC1CCCCC1)NC1C2CC3CC(C2)CC1C3` (stereo not shown) [molecular species 136] here?
Its IC50 is 100 nM.
